US11185077B2, “Attractants for rodents” (priority 2016, dated 2021)

Tested on: wild house mice, Mus musculus
Experiment: Field experiments with paired trap boxes: trap captures of wild mice
Assay type: in vivo
Description: Two field experiments were run in parallel from Feb. 4, 2016 to Apr. 14, 2016 in Vancouver B.C. to evaluate the effect of synthetic androstenone (Experiment 7) and of synthetic progesterone and estrogen (Experiment 8) on trap captures of wild mice. Experimental replicates were set up as depicted in FIG. 7 along the interior walls and bird feeder areas of a plant and bird conservatory maintained under tropical conditions. Each replicate consisted of a pair of trap boxes (PROTECTA® Mouse, Bell Laboratories Inc., Madison, Wis. 53704, USA), with 50-cm spacing between boxes in each pair, and at least 2 m between pairs.
In Experiments 7 and 8, each box in each pair contained a snap trap (1) (FIG. 7) that was baited with a food lure (Musso et al. 2014). In Experiment 7, the trap box was also baited with the synthetic two-component sex pheromone of male mice (3,4-dehydro-exo-brevicomin and 2-sec-butyl-4,5-dihydrothiazole). The compounds were formulated in 10 g of mineral oil and dispensed from a custom-made scintillation vial (2) (FIG. 7). Each box in each pair also contained a piece of Whatman #1 filter paper that by random assignment was treated with 4 μg of synthetic androstenone dissolved in 50 μl ether (3a) or 50 μl ether (control; 4). […]
All boxes and snap traps in both experiments were checked every 48 h to 72 h, and test stimuli (food lure, male-specific pheromone blend in mineral oil, filter paper with or without hormones) were replaced at each visit.
Mouse captures in treatment and control traps were compared against an expected 50:50 distribution using χ^2 tests with Yates' correction for continuity (α=0.05). Replicates with captures in both trap boxes of a pair are not included in the graphical illustration and statistical analyses of data.
Four field experiments were run in Vancouver B.C. to evaluate the effect of synthetic androstenone and synthetic testosterone on captures of female wild mice and rats in combination with species-specific male sex pheromone blend. Experimental replicates were set up along the interior and exterior walls of buildings as depicted in FIG. 7. Experiment 15 evaluated captures of wild mice in trap boxes baited with high-levels of androstenone; Experiment 16 evaluated captures of wild rats in traps baited with high-levels of androstenone; Experiment 17 evaluated captures of wild mice in traps baited with low-levels of testosterone; and Experiment 18 evaluated captures of wild mice in traps baited with low-levels of androstenone. Experiment 15 was run from Feb. 4, 2016 to Apr. 14, 2016. Experiment 16 was run from Feb. 26, 2016 to Sep. 19, 2016. Experiments 17 and 18 were run in parallel from Jun. 2, 2016 to Sep. 8, 2016.
Each replicate of Experiments 15 to 18 consisted of a pair of trap boxes (Mice: PROTECTA® Mouse, Bell Laboratories Inc., Madison, Wis. 53704, USA; Rats: PROTECTA® Sidekick™; Bell Laboratories Inc., Madison, Wis. 53704), with 50-cm spacing between boxes in each pair, and at least 2 m between pairs. Each trap box contained an armed snap trap (1, Mice: Victor® Easy Set® Mouse Trap; Rats: Victor® Easy Set® Rat Trap; Woodstream Corp, Lititz, Pa. 17543, USA) baited with a cereal-based food bait and a scintillation vial (2) containing synthetic sex pheromone blends. Each box in each pair also contained a treatment stimulus that consisted of a piece of Whatman #1 filter paper (3a) that by random assignment was treated with: 4 μg of synthetic androstenone dissolved in 50 μl ether (Experiments 15 and 16); 750 μg of synthetic testosterone dissolved in 50 μl ether (Experiment 17); or 750 μg of synthetic androstenone dissolved in 50 μl ether (Experiment 18). The corresponding box in each pair contained a control stimulus which consisted of a piece of Whatman #1 filter paper (3b) treated with 50 μl ether. […]

[1] = Experiment 17, 750 μg synthetic testosterone (low-levels), with food bait and male mouse sex pheromone blend
[2] = Experiment 7, 4 μg synthetic androstenone, boxes also with food lure and male mouse sex pheromone
[3] = Experiment 15, 4 μg synthetic androstenone, with food bait and male mouse sex pheromone blend

Compound	captures of both adult and juvenile mice (Experiment 17, 750 μg synthetic testosterone (low-levels))	captures of adult female mice vs control traps [1]	captures of juvenile female mice vs control traps [1]	captures of adult female mice vs control boxes [2]	captures of juvenile female mice vs control boxes [2]	captures of juvenile and adult male mice (Experiment 15, 4 μg synthetic androstenone)	captures of adult female mice vs control boxes [3]	captures of juvenile female mice vs control boxes [3]	captures of juvenile and adult male mice (Experiment 18, 750 μg synthetic androstenone (low-levels))	captures of female mice vs control traps (Experiment 18, 750 μg synthetic androstenone (low-levels), with food bait and male mouse sex pheromone blend)
C[C@]12CC[C@H]3[C@@H](CCC4=CC(=O)CC[C@@]43C)[C@@H]1CC[C@@H]2O [testosterone, (8R,9S,10R,13S,14S,17S)-17-hydroxy-10,13-dimethyl-1,2,6,7,8,9,11,12,14,15,16,17-dodecahydrocyclopenta[a]phenanthren-3-one, reference compound]	no significant effect	significantly more	significantly more	–	–	–	–	–	–	–
C[C@]12CCC(=O)C[C@@H]1CC[C@@H]1[C@@H]2CC[C@]2(C)C=CC[C@@H]12 [androstenone, 5α-androst-16-en-3-one]	–	–	–	significantly more	significantly more	no significant effect	significantly more	significantly more	no significant effect	did not differ statistically
